Reference: article PMC9013686, “Inter-individual variation in chlorpyrifos toxicokinetics characterized by physiologically based kinetic (PBK) and Monte Carlo simulation comparing human liver microsome and Supersome™ cytochromes P450 (CYP)-specific kinetic data as model input” (Archives of Toxicology, 2022)

Experiments:
[1] = biological target: CYP2C19 (Homo sapiens, UniProt P33261); assay: Supersome CYP2C19 kinetic incubations; format: in vitro ADME; parameters: purchased Corning (Amsterdam, The Netherlands); host or cells: baculovirus-transfected insect cells; conditions: for Scaled Vmax(app): CYP2C19 scaled to whole liver by Eq. 3; for Vmax (app) / Km: Supersome CYP2C19; for Km: human, recombinant CYP2C19 Supersomes, pH 7.4, Km(app)
Description: (§1) The final incubations were carried out in 50 mM Tris–HCl (pH 7.4) containing 5 mM MgCl2, 1 mM EDTA (as an A-esterase PON1 inhibitor) (Bizoń and Milnerowicz [2018]), 50 µM iso-OMPA (as a B-esterases inhibitor) (Lane et al. [2006]), Supersome™ isoform (at final concentration of 0.005 nmol CYP/ml for 1A2, 0.001 nmol CYP/ml for 2B6, 0.01 nmol CYP/ml for 2C19, and 0.01 nmol CYP/ml for 3A4) and CPF at different final concentrations (0.05, 0.1, 0.25, 0.5, 1, 5 and 10 µM for 1A2, 0.05, 0.1, 0.25, 0.5, 1, 5 10 and 25 µM for 2B6, 1, 2.5, 5, 10, 25 and 50 µM for 2C19, and 0.5, 1, 2.5, 5, 10, 25 and 50 µM for 3A4), which were added from 100 times concentrated stock solutions in ACN. After 1 min preincubation in a 37 °C water bath, 5 µl NADPH (final concentration 1 mM) was added to the incubation system. Control incubations were performed by replacing NADPH with the same amount of Tris–HCl (pH 7.4). The total volume of the incubation mixtures was 200 µl. The incubations lasted for 2 min at 37 °C and were terminated by addition of 50 µl ice cold ACN and subsquently put on ice. After that, samples were centrifuged at 16,000 g (4 ℃) for 5 min and supernatants of samples were separated into two equal portions for Ultra-Performance Liquid Chromatography-Photodiode Array (UPLC-PDA) and Liquid Chromatography Mass Spectrometry (LC–MS/MS) analysis, respectively.
(§2) To normalize for differences in intrinsic CYP activity between Supersome™ and pooled HLMs and enable scaling of the activities to the in vivo situation, CYP-specific ISEF values need to be established. […] The incubation method was similar as used for the CPF kinetic incubation assay described above, except that certain incubation conditions were replaced by the conditions listed in Table 1. The samples obtained were analyzed by UPLC-PDA for acetaminophen, 4-hydroxymephenytoin, and 6β-hydroxytestosterone formation catalyzed by 1A2, 2C19 and 3A4, or LC–MS/MS for (±)-hydroxybupropion formation catalyzed by 2B6.
(§3) As mentioned before, the in vitro apparent kinetic parameters (Vmax and Km) for pathway 1 and pathway 2 in the HLM-based approach, and pathway 3 in both approaches were all obtained directly from reported studies using pooled HLMs (Buratti et al. [2003]; Sams et al. [2004]; Zhao et al. [2019]). Therefore, no extra calculations were required to define these parameters. The kinetic parameters for the ISEF calculation, pathway 1 and 2 in the Supersome™-based approach, and pathway 4 in both approaches (25 individuals) were all obtained by fitting the experimental data to the Michaelis–Menten model using GraphPad (GraphPad Prism 5.0 software, San Diego, CA, USA). It should be noted that the kinetic parameters for pathway 4 used in the two approaches were calculated as mean of the kinetic parameters (Vmax and Km) obtained using 25 individual HP samples (with correction for total protein concentration of each plasma sample).
(§4) The in vivo Kmi values were assumed to be equal to the apparent Kmi(app) values (µM) obtained in the in vitro incubations, while the in vivo Vmaxi for each CYP isoform was derived from their corresponding apparent CYP isoform Vmaxi(app) (pmol/min/pmolCYP) using Eq. 3:3 Vmaxi=Vmaxiapp×CYPiabundance×ISEF×60×MPL×1000×VL/1,000,000,

[2] = test system: CYP1A2, CYP2B6, CYP2C19 and CYP3A4; assay: Summed Supersome CYP kinetics scaled to whole liver; format: in vitro ADME, human
Description: as §4
To gain a better insight in the contribution of each CYP to the metabolism of CPF in vivo at different concentrations of CPF, the apparent Supersome™ kinetic data were scaled toward the whole liver according to Eq. 3.
To evaluate the performance of the Supersomes™ together with the ISEF to predict the bioactivation of CPF, the sum of the scaled CE of the four individual Supersomes™ was compared to the CE obtained for the pooled HLMs (for both non-biphasic and biphasic scenarios).

[3] = test system: pooled HLMs (CYPs); assay: CYP-mediated biotransformation of CPF in pooled HLMs (literature kinetic data); format: in vitro ADME, human; conditions: bioactivation of CPF
Excerpt: as §3

[4] = biological target: T1, CYP1A2 (Homo sapiens, UniProt P05177); assay: Supersome CYP1A2 kinetic incubations; format: in vitro ADME; parameters: purchased Corning (Amsterdam, The Netherlands); host or cells: baculovirus-transfected insect cells; conditions: for Scaled Vmax(app): CYP1A2 scaled to whole liver by Eq. 3; for Vmax (app) / Km: Supersome CYP1A2; for Km: human, recombinant CYP1A2 Supersomes, pH 7.4, Km(app)
T1 sequence (P05177 2-516 limits assumed): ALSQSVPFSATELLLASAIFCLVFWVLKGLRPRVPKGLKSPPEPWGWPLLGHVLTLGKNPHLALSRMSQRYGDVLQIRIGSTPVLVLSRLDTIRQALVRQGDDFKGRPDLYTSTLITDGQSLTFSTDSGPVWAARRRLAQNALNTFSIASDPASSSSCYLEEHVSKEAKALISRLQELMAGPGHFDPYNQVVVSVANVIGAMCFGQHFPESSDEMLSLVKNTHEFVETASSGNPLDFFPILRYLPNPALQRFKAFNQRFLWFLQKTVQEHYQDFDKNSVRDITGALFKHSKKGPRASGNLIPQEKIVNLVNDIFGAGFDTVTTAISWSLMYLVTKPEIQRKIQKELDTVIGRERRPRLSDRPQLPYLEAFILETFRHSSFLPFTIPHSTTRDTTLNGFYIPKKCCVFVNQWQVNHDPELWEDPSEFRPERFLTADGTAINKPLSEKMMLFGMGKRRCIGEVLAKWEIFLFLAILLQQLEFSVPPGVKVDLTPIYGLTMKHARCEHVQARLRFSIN
Description: as §1, §2, §3, §4

[5] = Pathway 1 (bioactivation of CPF to CPO)
[6] = Pathway 2 (detoxification of CPF to TCPy)

Chain of CYP2C19 (P33261 whole entry, canonical isoform): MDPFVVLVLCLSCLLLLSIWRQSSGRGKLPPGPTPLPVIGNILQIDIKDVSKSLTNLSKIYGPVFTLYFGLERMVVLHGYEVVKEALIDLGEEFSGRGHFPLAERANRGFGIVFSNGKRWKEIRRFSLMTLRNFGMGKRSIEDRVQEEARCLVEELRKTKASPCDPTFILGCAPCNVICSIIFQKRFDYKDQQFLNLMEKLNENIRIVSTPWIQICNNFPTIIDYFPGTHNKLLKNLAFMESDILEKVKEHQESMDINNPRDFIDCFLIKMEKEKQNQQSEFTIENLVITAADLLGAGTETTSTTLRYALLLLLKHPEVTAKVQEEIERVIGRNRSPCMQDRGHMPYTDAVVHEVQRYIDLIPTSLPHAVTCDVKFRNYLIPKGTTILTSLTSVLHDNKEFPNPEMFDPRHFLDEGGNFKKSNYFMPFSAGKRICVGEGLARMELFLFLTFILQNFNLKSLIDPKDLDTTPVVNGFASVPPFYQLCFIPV

With CCOP(=S)(OCC)Oc1nc(Cl)c(Cl)cc1Cl [CPF, Chlorpyrifos] the “Scaled Vmax(app)” value ([1]; Pathway 1 (CPF to CPO)) was 10.81 µmol/h, the “Vmax (app)” value ([1]; Pathway 1 (CPF to CPO)) was 2.74 pmol/min/pmolCYP and the “Scaled Vmax(app)” value ([1]; Pathway 2 (CPF to TCPy)) was 69.06 µmol/h. The “Vmax (app)” value ([1]; Pathway 2 (CPF to TCPy)) was 17.51 pmol/min/pmolCYP, the Km [1, 5] was 1.89 µM and the Km [1, 6] was 1.37 µM. The “summed scaled CE of Supersomes” value ([2]; bioactivation of CPF, sum of four individual Supersomes) was 1578 L/h, the “overall extrapolated Vmax from Supersome data versus HLM-derived Vmax” value ([2]; high affinity component) was 1.9 fold and the “overall extrapolated Vmax from Supersome data versus HLM-derived Vmax” value ([2]; low affinity component) was 0.9 fold. The “CE of pooled HLM, biphasic kinetics” value ([3]; high and low affinity phase included) was 3600 L/h, the “CE of pooled HLM, high affinity phase excluded” value ([3]; non-biphasic) was 41 L/h and the “Scaled Vmax(app)” value ([4]; Pathway 1 (CPF to CPO)) was 51.81 µmol/h. The “Vmax (app)” value ([4]; Pathway 1 (CPF to CPO)) was 3.96 pmol/min/pmolCYP, the “Scaled Vmax(app)” value ([4]; Pathway 2 (CPF to TCPy)) was 38.73 µmol/h and the “Vmax (app)” value ([4]; Pathway 2 (CPF to TCPy)) was 2.96 pmol/min/pmolCYP. It also gave a Km [4, 5] of 0.61 µM and a Km [4, 6] of 1.25 µM.
